# Literature values in patent publication US20230404885A1, “EPIDERMAL STEM CELL PROLIFERATION-PROMOTING AGENT” (Shiseido Company, Ltd., priority 2020, published 2023).
# Key:
# heparanase = molecular target: T1, heparanase (Homo sapiens, UniProt Q9Y251); settings: known, see JP 2014-111640
# T1 sequence (Q9Y251 36-543): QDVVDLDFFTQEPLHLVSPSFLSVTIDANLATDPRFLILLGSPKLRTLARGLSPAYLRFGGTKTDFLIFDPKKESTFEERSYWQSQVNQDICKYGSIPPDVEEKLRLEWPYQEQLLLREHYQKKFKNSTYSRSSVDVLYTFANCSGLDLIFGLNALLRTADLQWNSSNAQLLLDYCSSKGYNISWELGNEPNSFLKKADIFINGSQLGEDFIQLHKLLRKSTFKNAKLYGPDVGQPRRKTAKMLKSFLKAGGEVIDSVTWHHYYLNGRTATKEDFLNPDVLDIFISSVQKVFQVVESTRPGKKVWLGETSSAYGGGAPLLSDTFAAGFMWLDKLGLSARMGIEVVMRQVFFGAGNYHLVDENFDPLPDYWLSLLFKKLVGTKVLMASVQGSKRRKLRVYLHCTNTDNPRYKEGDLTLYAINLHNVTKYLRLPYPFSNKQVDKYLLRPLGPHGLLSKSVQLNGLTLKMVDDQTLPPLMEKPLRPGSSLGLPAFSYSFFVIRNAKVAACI
# MMP-9 = MMP-9 (Homo sapiens, UniProt P14780); settings: known
# Sequence of MMP-9 (P14780 94-707): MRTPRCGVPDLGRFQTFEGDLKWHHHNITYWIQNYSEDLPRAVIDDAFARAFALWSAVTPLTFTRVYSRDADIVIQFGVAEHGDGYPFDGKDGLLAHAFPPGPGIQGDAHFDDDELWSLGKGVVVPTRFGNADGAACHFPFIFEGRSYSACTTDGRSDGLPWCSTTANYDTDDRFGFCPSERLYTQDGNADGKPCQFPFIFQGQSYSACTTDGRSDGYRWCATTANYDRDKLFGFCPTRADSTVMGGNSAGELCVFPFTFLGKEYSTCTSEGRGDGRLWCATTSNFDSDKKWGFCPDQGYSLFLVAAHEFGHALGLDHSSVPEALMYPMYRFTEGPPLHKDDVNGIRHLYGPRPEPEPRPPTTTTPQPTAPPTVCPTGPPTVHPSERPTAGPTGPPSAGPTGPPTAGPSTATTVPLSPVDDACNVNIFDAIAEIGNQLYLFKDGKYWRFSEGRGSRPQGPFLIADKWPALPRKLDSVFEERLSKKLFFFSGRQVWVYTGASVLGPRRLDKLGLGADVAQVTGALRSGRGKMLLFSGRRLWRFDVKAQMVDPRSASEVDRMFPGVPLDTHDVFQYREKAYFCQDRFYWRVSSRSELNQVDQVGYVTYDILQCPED
# MMP-1 = molecular target: T2, MMP-1 (Homo sapiens, UniProt P03956); settings: known
# T2 sequence (P03956 100-469): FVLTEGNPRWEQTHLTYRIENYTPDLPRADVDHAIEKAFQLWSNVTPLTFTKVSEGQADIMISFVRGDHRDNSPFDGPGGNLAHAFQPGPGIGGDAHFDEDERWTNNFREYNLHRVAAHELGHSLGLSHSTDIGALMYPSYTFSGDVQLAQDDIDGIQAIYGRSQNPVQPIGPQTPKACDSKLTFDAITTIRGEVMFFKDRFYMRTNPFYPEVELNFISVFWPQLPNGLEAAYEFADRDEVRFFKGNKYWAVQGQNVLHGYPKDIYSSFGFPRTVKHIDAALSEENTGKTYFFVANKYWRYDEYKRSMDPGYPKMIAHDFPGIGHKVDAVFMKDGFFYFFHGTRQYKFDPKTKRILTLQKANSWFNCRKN
# MMP-2 = molecular target: T3, MMP-2 (Homo sapiens, UniProt P08253); settings: known
# T3 sequence (P08253 110-660): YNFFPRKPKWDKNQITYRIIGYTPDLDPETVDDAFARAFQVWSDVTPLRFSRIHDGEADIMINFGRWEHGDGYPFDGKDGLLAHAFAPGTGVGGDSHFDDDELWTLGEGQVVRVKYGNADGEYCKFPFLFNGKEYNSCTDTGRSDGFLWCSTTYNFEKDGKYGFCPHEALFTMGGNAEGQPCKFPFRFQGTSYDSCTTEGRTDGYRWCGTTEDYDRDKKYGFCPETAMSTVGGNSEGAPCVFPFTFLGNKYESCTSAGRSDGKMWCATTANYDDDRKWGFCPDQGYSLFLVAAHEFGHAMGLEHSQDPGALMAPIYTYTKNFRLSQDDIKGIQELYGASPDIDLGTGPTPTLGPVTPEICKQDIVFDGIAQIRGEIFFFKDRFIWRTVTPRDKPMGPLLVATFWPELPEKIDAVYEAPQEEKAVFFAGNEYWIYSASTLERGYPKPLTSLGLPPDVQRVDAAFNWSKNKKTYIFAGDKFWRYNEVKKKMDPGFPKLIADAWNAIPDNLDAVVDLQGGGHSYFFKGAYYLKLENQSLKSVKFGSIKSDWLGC
smiles,measurement,setting,value
"O=C1NCCN1CCO [S173, 1-(2-hydroxyethyl)-2-imidazolidinone]",heparanase activity inhibition,heparanase,inhibitors of the heparanase activity
same,MMP-9 inhibition,MMP-9,inhibits
same,effect on activity of MMP-1,MMP-1,does not affect
same,effect on activity of MMP-2,MMP-2,does not affect
